For 24 compounds, IC50 results are on record in patent publication US11453660B2, “Androgen receptor and glucocorticoid receptor modulators” (ONCOSTELLAE, S.L., priority 2017, dated 2022).

pIC50: −log10 of the molar value. Counter-ions that a name gives are not always drawn.

The first experiment deals with T1, Human Glucocorticoid Receptor (Homo sapiens, UniProt P04150).
T1 construct: endogenous in cells; host or cells: cytosol from IM-9 cell line
T1 sequence (P04150 1-777): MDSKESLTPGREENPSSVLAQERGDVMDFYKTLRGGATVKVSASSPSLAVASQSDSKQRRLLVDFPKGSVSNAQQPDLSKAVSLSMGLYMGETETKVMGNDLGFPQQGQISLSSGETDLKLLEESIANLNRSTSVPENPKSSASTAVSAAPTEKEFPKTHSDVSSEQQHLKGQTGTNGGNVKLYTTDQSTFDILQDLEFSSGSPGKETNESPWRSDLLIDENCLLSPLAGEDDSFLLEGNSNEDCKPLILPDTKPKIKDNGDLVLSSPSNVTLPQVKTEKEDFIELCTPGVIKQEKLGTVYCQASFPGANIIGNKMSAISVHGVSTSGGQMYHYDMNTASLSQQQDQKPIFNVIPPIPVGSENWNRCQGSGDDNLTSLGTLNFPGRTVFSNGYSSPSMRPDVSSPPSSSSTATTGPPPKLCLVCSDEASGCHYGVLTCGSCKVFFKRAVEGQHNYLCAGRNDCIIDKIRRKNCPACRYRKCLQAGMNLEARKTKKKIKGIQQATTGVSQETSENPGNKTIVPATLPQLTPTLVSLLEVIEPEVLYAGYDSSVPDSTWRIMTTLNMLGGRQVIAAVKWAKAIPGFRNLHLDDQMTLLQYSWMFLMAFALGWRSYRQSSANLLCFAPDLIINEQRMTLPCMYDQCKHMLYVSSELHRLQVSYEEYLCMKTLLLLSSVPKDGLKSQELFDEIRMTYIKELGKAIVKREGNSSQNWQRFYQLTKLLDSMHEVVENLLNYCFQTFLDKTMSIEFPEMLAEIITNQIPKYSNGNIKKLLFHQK
As to the kind of experiment: Competition Binding in IM-9 Human Glucocorticoid Receptor (GR IM-9). As to conditions: cytosol from IM-9 cell line, 1.5 nM [3H]-Dexamethasone, 4° C. for 6 hours. Put shortly: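 Radioligand competition using 100 μg IM-9 cell cytosol and 1.5 nM [3H]-dexamethasone, incubated 6 h at 4° C in TES/molybdate buffer, pH 7.4. Filtration on PEI-treated GF/B filters, scintillation counting; nonspecific binding defined with 10 μM triamcinolone.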
Compound `CC(=O)C1=C(C)NC(C)=C(C(=O)OCC2CCCC2)C1c1csc2ncccc12` (stereo not shown) [Example C35, Cyclopentylmethyl 5-acetyl-2,6-dimethyl-4-(thieno[2,3-b]pyridin-3-yl)-1,4-dihydropyridine-3-carboxylate] gave a pIC50 greater than 7.00.

The next experiment addresses T2, Rat Androgen Receptor (Rattus norvegicus, UniProt P15207).
T2 construct: purchased Life Technologies A15880
T2 sequence (P15207 646-902 limits assumed): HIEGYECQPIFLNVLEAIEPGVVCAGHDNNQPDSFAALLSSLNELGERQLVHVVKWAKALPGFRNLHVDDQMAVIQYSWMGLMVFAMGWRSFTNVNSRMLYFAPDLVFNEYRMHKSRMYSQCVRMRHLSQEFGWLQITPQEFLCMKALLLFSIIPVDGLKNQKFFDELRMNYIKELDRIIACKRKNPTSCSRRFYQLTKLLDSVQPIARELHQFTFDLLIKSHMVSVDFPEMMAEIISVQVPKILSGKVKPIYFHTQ
As to the kind of experiment: Rat Androgen Receptor Binding (polarscreen AR competitor assay, fluorescence polarization). As to conditions: displacement of Fluormone AL Green, 4 hours at RT, read-out: AR rat-fluorimetric. Here is the method:
Pharmacological Activity Rat Androgen Receptor Binding
The assay was carried out following the instructions of polarscreen AR competitor assay green kit (Life Technologies, Cat #.: A15880). Briefly, the test is based on measuring the changes of fluorescence polarization shown by the Fluormone AL Green. Thus, when the Fluormone is bound to the receptor, a fluorescence polarization is observed that diminishes when a ligand competes for the receptor binding site and the Fluormone gets displaced.
The inhibition values for each of the compounds are measured in duplicate at 1 and 10 μM and the plate is incubated for 4 hours at RT. Fluorescence polarization is the measured in a Tecan Infinite M1000 Pro reader (λexc=485 nm, λem=535 nm). In order to obtain a dose-response curve and calculate the potency of inhibition (expressed as IC50) for AR, a series of 1:10 dilutions in test in 1× buffer from 10 μM to 0.1 nM for each compound was carried out.
(In general: Polarisation of emitted light reports the rotation of a fluorescent probe.)
As for `CC(=O)C1=C(C)NC(C)=C(C(=O)OCC2CCCC2)C1c1csc2ncccc12` (stereo not shown) [Example C35, Cyclopentylmethyl 5-acetyl-2,6-dimethyl-4-(thieno[2,3-b]pyridin-3-yl)-1,4-dihydropyridine-3-carboxylate], the pIC50 was 6.00 to 7.00.

As for `CC(=O)C1=C(C)NC(C)=C(C(C)=O)C1c1csc2ccc(C(=O)N3CCOCC3)cc12` [Example H12, 1,1′-(2,6-Dimethyl-4-(5-(morpholine-4-carbonyl)benzo[b]thiophen-3-yl)-1,4-dihydropyridine-3,5-diyl)bis(ethan-1-one)], the pIC50 was no more than 6.00. As for `CC(=O)C1=C(C)NC(C)=C(C(C)=O)C1c1csc2ccncc12` [Example H13, 1,1′-(2,6-Dimethyl-4-(thieno[3,2-c]pyridin-3-yl)-1,4-dihydropyridine-3,5-diyl)bis(ethan-1-one)], the pIC50 is no more than 6.00. In the case of `CC(=O)C1=C(C)NC(C)=C(C(C)=O)C1c1csc2cnccc12` [Example H14, 1,1′-(2,6-Dimethyl-4-(thieno[2,3-c]pyridin-3-yl)-1,4-dihydropyridine-3,5-diyl)bis(ethan-1-one)], the pIC50 was no more than 6.00.

Turning to `COC(=O)C1=C(C2CC2)NC(C)=C(C(C)=O)C1c1csc2ccccc12` (stereo not shown) [Example J1, Methyl 5-acetyl-4-(benzo[b]thiophen-3-yl)-2-cyclopropyl-6-methyl-1,4-dihydropyridine-3-carboxylate], the pIC50 was greater than 7.00. For the compound `CCOC(=O)C1=C(C)NC(C)=C(C(C)=O)C1c1csc2ccccc12` (stereo not shown) [Example J2, Ethyl 5-acetyl-4-(benzo[b]thiophen-3-yl)-2,6-dimethyl-1,4-dihydropyridine-3-carboxylate], the pIC50 was greater than 7.00. For `COC(=O)C1=C(C)NC(C)=C(C(C)=O)C1c1csc2ccc(Cl)cc12` (stereo not shown) [Example J3, Methyl 5-acetyl-4-(5-chlorobenzo[b]thiophen-3-yl)-2,6-dimethyl-1,4-dihydropyridine-3-carboxylate], the pIC50 was 6.00 to 7.00.

As to `CC(=O)C1=C(C)NC(C2CC2)=C(C(C)=O)C1c1csc2ccccc12` (stereo not shown) [Example J6, 1,1′-(4-(benzo[b]thiophen-3-yl)-2-cyclopropyl-6-methyl-1,4-dihydro-pyridine-3,5-diyl)diethanone], the pIC50 was no more than 6.00.

As to `CC(=O)C1=C(C)NC(C)=C(S(C)(=O)=O)C1c1csc2ccccc12` (stereo not shown) [Example J10, 1-(4-(benzo[b]thiophen-3-yl)-2,6-dimethyl-5-(methylsulfonyl)-1,4-dihydro-pyridin-3-yl)ethanone], the pIC50 is 6.00 to 7.00. Same read-out and setting: under `COC(=O)C1=C(C)NC(C)=C(C(C)=O)C1c1csc2ccc(F)cc12` (stereo not shown) [Example J11, Methyl 5-acetyl-4-(5-fluorobenzo[b]thiophen-3-yl)-2,6-dimethyl-1,4-dihydropyridine-3-carboxylate] stands greater than 7.00; under `COC(=O)C1=C(C)NC(C)=C(C(C)=O)C1c1csc2ccc(Br)cc12` (stereo not shown) [Example J12, Methyl 5-acetyl-4-(5-bromobenzo[b]thiophen-3-yl)-2,6-dimethyl-1,4-dihydropyridine-3-carboxylate], greater than 7.00; under `COC(=O)C1=C(C)NC(C)=C(C(C)=O)C1c1csc2ccc(C#N)cc12` (stereo not shown) [Example J13, Methyl 5-acetyl-4-(5-cyanobenzo[b]thiophen-3-yl)-2,6-dimethyl-1,4-dihydropyridine-3-carboxylate], no more than 6.00. Take `COC(=O)C1=C(C)NC(C)=C(C(C)=O)C1c1csc2ccc(C(=O)O)cc12` (stereo not shown) [Example J14, 3-(3-acetyl-5-(methoxycarbonyl)-2,6-dimethyl-1,4-dihydropyridin-4-yl)benzo[b]thiophene-5-carboxylic acid]: the pIC50 was no more than 6.00. `COC(=O)C1=C(C)NC(C)=C(C(C)=O)C1c1csc2ccc(C(=O)NC3CC3)cc12` (stereo not shown) [Example J15, Methyl 5-acetyl-4-(5-(cyclopropylcarbamoyl)benzo[b]thiophen-3-yl)-2,6-dimethyl-1,4-dihydropyridine-3-carboxylate]: the pIC50 was no more than 6.00. In the case of `COC(=O)C1=C(C)NC(C)=C(C(C)=O)C1c1csc2ccc(C(=O)NCC3CC3)cc12` (stereo not shown) [Example J16, Methyl 5-acetyl-4-(5-((cyclopropylmethyl)carbamoyl)benzo[b]thiophen-3-yl)-2,6-dimethyl-1,4-dihydropyridine-3-carboxylate], the pIC50 is no more than 6.00. `COC(=O)C1=C(C)NC(C)=C(C(C)=O)C1c1csc2ccc(C(=O)N3CCN(C)CC3)cc12` (stereo not shown) [Example J17, Methyl 5-acetyl-2,6-dimethyl-4-(5-(4-methylpiperazine-1-carbonyl)benzo[b]thiophen-3-yl)-1,4-dihydropyridine-3-carboxylate]: the pIC50 is no more than 6.00. In the case of `COC(=O)C1=C(C)NC(C)=C(C(C)=O)C1c1csc2ccc(C(=O)N3CCOCC3)cc12` (stereo not shown) [Example J18, Methyl 5-acetyl-2,6-dimethyl-4-(5-(morpholine-4-carbonyl)benzo[b]thiophen-3-yl)-1,4-dihydropyridine-3-carboxylate], the pIC50 is no more than 6.00. Consider `COC(=O)C1=C(C)NC(C)=C(C(C)=O)C1c1csc2ccncc12` (stereo not shown) [Example J19, Methyl 5-acetyl-2,6-dimethyl-4-(thieno[3,2-c]pyridin-3-yl)-1,4-dihydropyridine-3-carboxylate], for which the pIC50 is no more than 6.00. In the case of `COC(=O)C1=C(C)NC(C)=C(C(C)=O)C1c1csc2cnccc12` (stereo not shown) [Example J20, Methyl 5-acetyl-2,6-dimethyl-4-(thieno[2,3-c]pyridin-3-yl)-1,4-dihydropyridine-3-carboxylate], the pIC50 is 6.00 to 7.00.

For `COC(=O)C1=C(C2CC2)NC(C2CC2)=C(C(C)=O)C1c1csc2ccccc12` (stereo not shown) [Example J24, Methyl 5-acetyl-4-(benzo[b]thiophen-3-yl)-2,6-dicyclopropyl-1,4-dihydropyridine-3-carboxylate], the pIC50 was no more than 6.00. For `COC(=O)C1=C(N)NC(C)=C(C(C)=O)C1c1csc2ccccc12` (stereo not shown) [Example K1, Methyl 5-acetyl-2-amino-4-(benzo[b]thiophen-3-yl)-6-methyl-1,4-dihydropyridine-3-carboxylate hydrochloride], the pIC50 was 6.00 to 7.00. Turning to `COC(=O)C1=C(N)NC(C)=C(C(C)=O)C1c1csc2ccccc12` (stereo not shown) [Example K2, Methyl 5-acetyl-2-amino-4-(benzo[b]thiophen-3-yl)-6-methyl-1,4-dihydropyridine-3-carboxylate trifluoromethanesulfonate], the pIC50 was no more than 6.00. `CC(=O)C1=C(C)NC(C)=C(C(=O)OCc2cncc(-c3cccnc3)c2)C1c1csc2ncccc12` (stereo not shown) [Example L8, [3,3′-bipyridin]-5-ylmethyl 5-acetyl-2,6-dimethyl-4-(thieno[2,3-b]pyridin-3-yl)-1,4-dihydropyridine-3-carboxylate]: the pIC50 was no more than 6.00. `CC(=O)C1=C(C)NC(C)=C(C(C)=O)C1c1csc2ccc(-c3cccnc3)cc12` [Example M1, 1,1′-(2,6-dimethyl-4-(5-(pyridin-3-yl)benzo[b]thiophen-3-yl)-1,4-dihydro-pyridine-3,5-diyl)diethanone]: the pIC50 was no more than 6.00.
